Experiments:
P2Y2 receptors [1] = target: T1, P2Y2 receptors (Homo sapiens, UniProt P41231); settings: natural ligands of the human P2Y2 receptor; cited from earlier work
P2Y2 receptors [2] = target: T1, P2Y2 receptors; settings: cited from earlier work
MS1 endothelial cells = experiment: morphology of the endothelial monolayer (VE-cadherin/F-actin staining, discontinuous cellular junctions); format: cell-based, mouse
Method: (§1) The permeability assay was performed as described for the transwell assay with some modifications. Briefly, MS1 cells were cultured on transwell filters and the supernatant of platelets alone or platelets stimulated with tumour cells was mixed 1:1 with TB containing 2 mg/ml 70 kDa FITC-DX of which 50 μl were added to the upper compartment in the absence or presence of apyrase (20 U/ml). 250 μl TB were added to the lower compartment. After 90 min, the amount of passed FITC-DX to the lower compartment was measured (FlexStation3, Molecular Devices). For visualization of changes in the endothelial barrier, MS1 cells were stimulated for 1 h with supernatants from tumour cells alone or from tumour cells after stimulation with platelets in the absence or presence of apyrase (20 U/ml). Cells were further processed for staining and imaging
Cells or tissues were fixed with 4% para-formaldehyde. Tissues were further cryopreserved in 30% sucrose (Sigma), embedded in OCT (Fisher Scientific), and cryosectioned at 16 μm. Cells or sections were stained with rat anti-VE-Cadherin (BD Pharmingen) and Alexa Fluor (AF) 594- (Molecular Probes) or Cy5- (Dianova) conjugated secondary antibodies. DAPI (Sigma) was used to stain cell nuclei, and AF488-conjugated phalloidin (Molecular Probes) to stain F-actin. Images were acquired using a Leica SP5 confocal microscope and analyzed using ImageJ (NIH).

[3] = system: MS1 endothelial cell layer; experiment: endothelial barrier permeability assay (FITC-dextran); format: cell-based, mouse
Method: as §1

B16 cells = experiment: transwell assay: tumour cell transmigration through an endothelial cell layer; format: cell-based, mouse
Method: MS1 cells (8×10^3 at seeding in 50 μl) or HUVEC (6×10^3 at seeding in 50 μl) were cultured for 2 days on 96-transwell plates with polyester membranes of 8-μm pore size (Corning) with medium changes every day. For knockdown experiments, 4×10^5 MS1 cells were transfected using Amaxa Nucleofector Kit V with different sets of siRNA against the P2Y2 receptor (Qiagen) and 1.2×10^4 cells in 50 μl were seeded to the up-per compartment. Where indicated, MS1 cells were pre-incubated with 5-BDBD (1 μM) or MRS2500 (100 nM) for 30 min. Before the experiment, exemplary wells of each condition were visually checked by calcein-AM staining of the endothelial monolayer and only plates with 100% confluency were used. For transmigration, the medium from the upper compartment was removed and 50 μl of a 1:1 mixture of platelets (2×10^8/ml) with calcein-AM-labeled tumour cells (8×10^5/ml) in TB was added to the upper compartment alone or with flurbiprofen (100 nM), ketanserin (3 nM) or apyrase (20 […] (10 μM) and 2MeSADP (10 μM) were added in the absence of platelets. For supernatant experiments, human platelets (5×10^7/ml) or mouse platelets (2×10^8/ml) were incubated for 30 min at 37° C. alone or with tumour cells (1.6×10^6/ml) and centrifuged at 350×g for 10 min. The supernatant was mixed 1:1 with TB (for MS1 cells) or cell culture medium (for HUVECs) containing calcein-AM-labeled tumour cells (8×10^5/ml) and 50 μl were added to the upper compartment. In all experiments, 250 μl TB or culture medium were added to the lower compartment, and tumour cells were allowed to transmigrate over night. On the next day, the non-transmigrated tumour cells from the upper compartment were removed and only the transmigrated tumour cells on the lower side of the filter or the bottom of the transwell were imaged (Zeiss Axio Observer.Z1 and Olympus IX81) and quantified with ImageJ (NIH). Each experiment was performed at least 3 times with a minimum of 5 wells per experiment.

[4] = B16 cells on MS1 endothelial cells with platelets, flurbiprofen 100 nM, ketanserin 3 nM, apyrase 20 U/ml

T1 sequence (P41231 whole entry): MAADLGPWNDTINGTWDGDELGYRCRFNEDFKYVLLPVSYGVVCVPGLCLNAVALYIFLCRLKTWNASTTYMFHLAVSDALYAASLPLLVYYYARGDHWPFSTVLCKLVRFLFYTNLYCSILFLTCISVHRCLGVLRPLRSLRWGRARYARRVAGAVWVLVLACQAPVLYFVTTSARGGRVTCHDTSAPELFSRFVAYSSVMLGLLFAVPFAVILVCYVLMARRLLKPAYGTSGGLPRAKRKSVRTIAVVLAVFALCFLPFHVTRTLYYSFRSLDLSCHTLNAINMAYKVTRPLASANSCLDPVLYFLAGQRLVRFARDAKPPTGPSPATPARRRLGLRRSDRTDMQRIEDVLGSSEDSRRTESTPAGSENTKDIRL

## Nc1ncnc2c1ncn2[C@@H]1O[C@H](COP(=O)(O)OP(=O)(O)O)[C@@H](O)[C@H]1O [ADP]
P2Y2 receptors [1]
  EC50: considerably lower potency
P2Y2 receptors [2]
  agonist efficacy at P2Y2 receptors in comparison to ATP: less effective agonist

## Nc1ncnc2c1ncn2[C@@H]1O[C@H](COP(=O)(O)OP(=O)(O)OP(=O)(O)O)[C@@H](O)[C@H]1O [ATP]
MS1 endothelial cells; ATP 10 μM, 30 min, MS1 cells
  tight interendothelial junctions: loss
[3]; ATP 10 μM, MS1 monolayer, FITC-dextran
  endothelial permeability: increase

## O=c1ccn([C@@H]2O[C@H](COP(=O)(O)OP(=O)(O)OP(=O)(O)O)[C@@H](O)[C@H]2O)c(=O)[nH]1 [UTP]
P2Y2 receptors [2]
  agonist efficacy at P2Y2 receptors in comparison to ATP: full agonist

## CC(C(=O)O)c1ccc(-c2ccccc2)c(F)c1 (stereo not shown) [flurbiprofen]
B16 cells; 0.1 µM
  platelet-dependent facilitation of tumour cell transmigration: no effect

## O=C(c1ccc(F)cc1)C1CCN(CCn2c(=O)[nH]c3ccccc3c2=O)CC1 [ketanserin]
B16 cells; [4]
  platelet-dependent facilitation of tumour cell transmigration: no effect

## apyrase
B16 cells; [4]
  platelet-dependent facilitation of tumour cell transmigration: ablated
MS1 endothelial cells; apyrase 20 U/ml, 1 h
  loss of tight interactions of endothelial cells in the monolayer induced by platelets with tumour cells: blocked
[3]; apyrase 20 U/ml, 90 min
  diffusion of FITC-labeled dextran over an endothelial cell layer enhanced by platelets with tumour cells: blocked

— US20150037351A1, “NOVEL THERAPEUTIC TARGET FOR THE PREVENTION OF TUMOUR METASTASIS” (MAX-PLANCK-GESELLSCHAFT ZUR FORDERUNG DER WISSENSCHAFTEN …, priority 2012, published 2015)
